Where two headings read alike, the source gives them in different places.
Key:
human DGKα = biological target: T1, human DGKα (Homo sapiens, UniProt P23743); assay: DGKα LIPGLO assay (extruded liposome substrate), in vitro DGK inhibition; type: biochemical; conditions: liposome (LIPGLO) assay; read-out: DGKa LIPGLO IC50
T1 construct: TVMV protease cleavage site (C); Hexa-His (C); made in house; host or cells: Sf9 insect cells (baculovirus, Bac-to-Bac)

naïve human CD8 T cells = assay: Human CD8 T cells IFN-γ assay; type: cell-based; conditions: normalized to 3 μM reference compound with anti-CD3 plus anti-CD28 as 100% activation, read-out: HuCD8 INFG Normalized EC50;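 also: Naïve human CD8 T cells stimulated with plate-bound anti-CD3 and soluble anti-CD28, IFN-γ in supernatant quantified by AlphaLISA and converted to pg/mL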
Human venous whole blood = assay: Human whole blood IFN-γ assay; type: cell-based; conditions: human whole blood, normalized to 3 μM reference compound with anti-CD3 plus anti-CD28 as 100% activation, read-out: INFg Whole Blood Normalized Agonist EC50;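 also: blood from healthy donors exposed to compound for 1 h before stimulation with anti-CD3 and anti-CD28 at 1 µg/mL each, IFN-γ quantified in supernatant by AlphaLISA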
Method: Human Whole Blood IFN-γ Assay
Human venous whole blood (22.5 μL per well), obtained from healthy donors, was pre-treated with compounds for one hour at 37° C. in a humidified 95% air/5% CO2 incubator. The blood was stimulated with 2.5 μL anti-human CD3 and anti-CD28 mAb at a final concentration of 1 μg/mL each for 24 hours at 37° C. IFN-γ in the supernatants was measured using AlphLISA kit (Cat # AL217).

human DGKζ = biological target: T2, human DGKζ (Homo sapiens, UniProt Q13574); assay: DGKζ LIPGLO assay (extruded liposome substrate), in vitro DGK inhibition; type: biochemical; conditions: liposome (LIPGLO) assay; read-out: DGKz LIPGLO IC50
T2 construct: TVMV protease cleavage site (C); Hexa-His (C); made in house; host or cells: Sf9 insect cells (baculovirus, Bac-to-Bac)
T2 sequence (Q13574 with tags, fused parts or gaps isoform Q13574-4): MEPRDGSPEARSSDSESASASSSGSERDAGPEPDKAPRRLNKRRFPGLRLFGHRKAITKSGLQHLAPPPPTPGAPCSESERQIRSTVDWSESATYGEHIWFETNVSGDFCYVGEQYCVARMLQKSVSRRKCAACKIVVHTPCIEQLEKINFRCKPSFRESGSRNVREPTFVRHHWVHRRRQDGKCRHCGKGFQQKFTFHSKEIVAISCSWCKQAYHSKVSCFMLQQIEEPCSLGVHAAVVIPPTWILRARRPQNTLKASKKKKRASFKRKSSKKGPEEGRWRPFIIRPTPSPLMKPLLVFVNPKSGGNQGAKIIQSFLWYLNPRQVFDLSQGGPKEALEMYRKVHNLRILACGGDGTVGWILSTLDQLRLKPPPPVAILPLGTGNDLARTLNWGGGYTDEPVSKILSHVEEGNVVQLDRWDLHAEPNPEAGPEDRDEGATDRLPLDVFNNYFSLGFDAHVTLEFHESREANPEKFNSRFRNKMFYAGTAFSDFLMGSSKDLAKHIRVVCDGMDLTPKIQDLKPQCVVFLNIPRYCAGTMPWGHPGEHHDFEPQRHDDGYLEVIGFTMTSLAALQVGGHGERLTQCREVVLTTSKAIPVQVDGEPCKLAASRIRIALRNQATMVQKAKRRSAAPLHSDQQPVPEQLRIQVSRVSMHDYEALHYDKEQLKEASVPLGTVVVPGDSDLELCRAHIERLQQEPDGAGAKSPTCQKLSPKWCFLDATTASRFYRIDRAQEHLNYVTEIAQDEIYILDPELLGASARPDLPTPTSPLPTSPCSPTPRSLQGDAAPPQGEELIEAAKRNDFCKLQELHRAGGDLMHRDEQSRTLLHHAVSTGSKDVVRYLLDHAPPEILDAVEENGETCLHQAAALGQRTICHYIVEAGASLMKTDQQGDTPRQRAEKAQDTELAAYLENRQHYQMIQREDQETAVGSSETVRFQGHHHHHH

T1 sequence (P23743 with tags, fused parts or gaps): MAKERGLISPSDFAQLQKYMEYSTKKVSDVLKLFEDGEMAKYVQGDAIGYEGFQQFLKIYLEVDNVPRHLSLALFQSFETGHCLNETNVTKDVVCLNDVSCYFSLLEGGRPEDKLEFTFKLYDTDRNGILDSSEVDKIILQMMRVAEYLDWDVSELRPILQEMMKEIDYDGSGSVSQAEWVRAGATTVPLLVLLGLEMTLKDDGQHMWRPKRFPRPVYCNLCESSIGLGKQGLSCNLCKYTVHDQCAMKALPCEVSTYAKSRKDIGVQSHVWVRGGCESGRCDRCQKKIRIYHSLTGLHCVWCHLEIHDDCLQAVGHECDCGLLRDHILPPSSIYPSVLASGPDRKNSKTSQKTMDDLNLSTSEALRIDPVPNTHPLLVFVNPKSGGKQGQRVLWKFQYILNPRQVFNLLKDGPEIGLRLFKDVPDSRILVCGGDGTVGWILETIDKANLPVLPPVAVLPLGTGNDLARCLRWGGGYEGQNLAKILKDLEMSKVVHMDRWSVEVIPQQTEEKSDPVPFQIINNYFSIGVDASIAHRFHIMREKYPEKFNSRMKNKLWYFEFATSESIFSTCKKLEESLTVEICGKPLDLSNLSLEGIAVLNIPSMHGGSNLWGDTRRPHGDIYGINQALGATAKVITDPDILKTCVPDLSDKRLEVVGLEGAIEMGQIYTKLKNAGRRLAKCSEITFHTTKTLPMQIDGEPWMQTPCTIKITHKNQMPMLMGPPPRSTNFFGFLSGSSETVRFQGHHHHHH

| SMILES | IC50 (human DGKα) | EC50 (naïve human CD8 T cells; Homo sapiens, T-cell, 20 h) | EC50 (Human venous whole blood; Homo sapiens, 24 h) | IC50 (human DGKζ) | EC50 (naïve human CD8 T cells) | EC50 (Human venous whole blood) |
| --- | --- | --- | --- | --- | --- | --- |
| CC[C@H]1CN(C(c2ccc(F)cc2)c2ccc(Cl)cc2)[C@H](CC)CN1c1cc(=O)n(C)c2ccc(C#N)nc12 (some centres unmarked) [Example 1031] | 260 nM | 1.3 nM | 85 nM | 240 nM | – | – |
| CC[C@@H]1CN(c2cc(=O)n(C)c3ccc(C#N)nc23)[C@@H](C)CN1C(c1ccc(Cl)cc1)c1ccc(Cl)cc1 [Example 1099] | 1700 nM | 2.5 nM | 220 nM | 1500 nM | – | – |
| CC[C@@H]1CN(c2cc(=O)n(C)c3ccc(C#N)nc23)[C@@H](C)CN1C(c1ccc(F)cc1)c1ccc(Cl)cc1 (some centres unmarked) [Example 1100] | 390 nM | 4.6 nM | 120 nM | 370 nM | – | – |
| CC[C@@H]1CN(c2cc(=O)n(C)c3ccc(C#N)nc23)[C@@H](C)CN1C(c1ccc(F)cc1)c1ncccc1F (some centres unmarked) [Example 1104] | 250 nM | – | 300 nM | 900 nM | 56 nM | – |
| CC[C@@H]1CN(c2cc(=O)n(C)c3ccc(C#N)nc23)[C@@H](C)CN1C(c1ccc(F)cc1)c1ncccc1F (some centres unmarked) [Example 1105] | 150 nM | – | – | 440 nM | 200 nM | 320 nM |
| CC[C@H]1CN(C(c2ccc(Cl)cc2)c2ccc(Cl)cc2)[C@H](C)CN1c1cc(=O)n(C)c2ccc(C#N)nc12 [Example 1120] | 110 nM | 32 nM | 680 nM | 75 nM | – | – |
| C[C@H]1CN(C(c2ccc(Cl)cc2)c2ccc(Cl)cc2)[C@H](CO)CN1c1cc(=O)n(C)c2ccc(C#N)nc12 [Example 1152] | 7400 nM | 10000 nM | 780 nM | 24000 nM | – | – |
| COC[C@@H]1CN(c2cc(=O)n(C)c3ccc(C#N)nc23)[C@@H](C)CN1C(c1ccc(F)cc1)c1ccc(F)cc1 [Example 1155, 8-((2S,5S)-4-(bis(4-fluorophenyl)methyl)-5-(methoxymethyl)-2-methylpiperazin-1-yl)-5-methyl-6-oxo-5,6-dihydro-1,5-naphthyridine-2-carbonitrile] | 1800 nM | 3.5 nM | 860 nM | 660 nM | – | – |
| COC[C@@H]1CN(c2cc(=O)n(C)c3ccc(C#N)nc23)[C@@H](C)CN1C(c1ccc(C)cc1)c1ccc(C)cc1 [Example 1156] | 2500 nM | 19 nM | 340 nM | 440 nM | – | – |
| CCOC[C@@H]1CN(c2cc(=O)n(C)c3ccc(C#N)nc23)[C@@H](C)CN1C(c1ccc(F)cc1)c1ccc(F)cc1 [Example 1164, 8-((2S,5S)-4-(bis(4-fluorophenyl)methyl)-5-(ethoxymethyl)-2-methylpiperazin-1-yl)-5-methyl-6-oxo-5,6-dihydro-1,5-naphthyridine-2-carbonitrile] | 18000 nM | 17 nM | 340 nM | 670 nM | – | – |
| C[C@H]1CN(C(c2ccc(F)cc2)c2ccc(F)cc2)[C@H](CN2CCOCC2)CN1c1cc(=O)n(C)c2ccc(C#N)nc12 [Example 1167, 8-((2S,5R)-4-(bis(4-fluorophenyl)methyl)-2-methyl-5-(morpholinomethyl)piperazin-1-yl)-5-methyl-6-oxo-5,6-dihydro-1,5-naphthyridine-2-carbonitrile] | 50000 nM | 47 nM | 970 nM | 6600 nM | – | – |

— US10669272B2, “Substituted naphthyridinone compounds useful as T cell activators” (BRISTOL-MYERS SQUIBB COMPANY, priority 2018, dated 2020)
